Measured values from the supplement of paper PMC10331698.
± gives the standard deviation of the averaged measurements.

Assays:
Test in all cases: level (log10 ratio to DMSO vehicle control); higher = higher biomarker level / cell amount than vehicle control
[1] = compound: C=CC(=O)OCC(F)(F)C(F)(F)C(F)(F)COC(=O)C=C [1H,1H,5H,5H-Perfluoro-1,5-pentanediol diacrylate]; settings: 6700 nM; in DMSO
Procedure: (§1)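 BioMAP Diversity Plus panel of 12 human primary cell co-culture systems (3C, 4H, LPS, SAg, BT, BF4T, BE3C, CASM3C, HDF3CGF, KF3CT, MyoF, Mphg). Compounds were added 1 h before stimulation and left for 24 h (MyoF 48 h; BT 72 h for soluble read-outs or 6 d for IgG). Biomarkers were read by ELISA, cytotoxicity by SRB, PBMC viability and proliferation by Alamar Blue. Each well value was divided by the mean of 8 DMSO control wells on the same plate and log10 transformed; duplicate blinded samples were tested at 4 concentrations.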

[2] = compound: O=C(O)C(F)(F)C(F)(F)C(F)(F)C(F)(F)C(F)(F)C(F)(F)C(F)(F)C(F)(F)C(F)(F)C(F)F [11-H-Perfluoroundecanoic acid]; settings: in DMSO
Procedure: as §1

[3] = compound: NS(=O)(=O)C(F)(F)C(F)(F)C(F)(F)C(F)(F)C(F)(F)C(F)(F)F [Perfluorohexanesulfonamide]; settings: in DMSO
Procedure: as §1

[4] = compound: OCC(F)(F)C(F)(F)C(F)(F)CO [Hexafluoroamylene glycol]; settings: in DMSO
Procedure: as §1

[5] = compound: FC(F)(F)C(F)(F)C(F)(F)C(F)(F)C(F)(F)C(F)(F)C(F)(F)I [1-Iodopentadecafluoroheptane]; settings: in DMSO
Procedure: as §1

[6] = compound: FC(F)(F)C(F)(F)C(F)(F)CC1CO1 [1H,1H-Heptafluorobutyl epoxide]; settings: in DMSO
Procedure: as §1

[7] = compound: C=C(C)C(=O)OCCC(F)(F)C(F)(F)C(F)(F)C(F)(F)C(F)(F)C(F)(F)F [6:2 Fluorotelomer methacrylate]; settings: in DMSO
Procedure: as §1

[8] = compound: O=S(=O)(Cl)C(F)(F)C(F)(F)C(F)(F)C(F)(F)C(F)(F)C(F)(F)C(F)(F)C(F)(F)F [Perfluoro-1-octanesulfonyl chloride]; settings: in DMSO
Procedure: as §1

| Test System | level (log10) [1] | level (log10) ([2]; 6700 nM) | level (log10) ([2]; 20000 nM) | level (log10) ([3]; 6700 nM) | level (log10) ([3]; 20000 nM) | level (log10) ([3]; 60000 nM) | level (log10) ([4]; 6700 nM) | level (log10) ([4]; 20000 nM) | level (log10) ([4]; 60000 nM) | level (log10) ([5]; 6700 nM) | level (log10) ([5]; 20000 nM) | level (log10) ([6]; 6700 nM) | level (log10) ([6]; 20000 nM) | level (log10) ([6]; 60000 nM) | level (log10) ([7]; 6700 nM) | level (log10) ([7]; 20000 nM) | level (log10) ([7]; 60000 nM) | level (log10) ([8]; 6700 nM) | level (log10) ([8]; 20000 nM) | level (log10) ([8]; 60000 nM) |
| --- | --- | --- | --- | --- | --- | --- | --- | --- | --- | --- | --- | --- | --- | --- | --- | --- | --- | --- | --- | --- |
| SAg:CXCL8/IL-8 | -0.259 ± 0.13 | -0.0115 ± 0.019 | -0.0115 ± 0.05 | -0.0225 ± 0.021 | -0.088 ± 0.0099 | -0.237 ± 0.088 | -0.0285 ± 0.073 | -0.0175 ± 0.0092 | 0.052 ± 0.035 | -0.034 ± 0.035 | 0.0055 ± 0.073 | -0.012 ± 0.05 | -0.011 ± 0.021 | 0.005 ± 0.027 | 0.0095 ± 0.005 | -0.0165 ± 0.0021 | 0.044 ± 0.011 | -0.011 ± 0.011 | 0.012 ± 0.0099 | 0.093 ± 0.016 |
| BF4T:PAI-I | -0.0285 ± 0.00071 | -0.0455 ± 0.025 | -0.146 ± 0.034 | 0.002 ± 0.0099 | 0.003 ± 0.0057 | -0.0115 ± 0.005 | -0.0025 ± 0.013 | -0.002 ± 0.021 | 0.0065 ± 0.0064 | -0.004 ± 0.0085 | -0.0235 ± 0.0092 | -0.0035 ± 0.011 | -0.007 ± 0.0057 | -0.02 ± 0.0014 | -0.0175 ± 0.011 | -0.007 ± 0.0042 | -0.0075 ± 0.0035 | -0.001 ± 0.0085 | -0.015 ± 0.0099 | -0.17 ± 0.0078 |
| LPS:CD142/Tissue Factor | -0.107 ± 0.03 | 0.012 ± 0.034 | -0.033 ± 0.041 | 0.0095 ± 0.025 | 0.012 ± 0.0085 | 0.022 ± 0.0071 | 0.0025 ± 0.087 | 0.041 ± 0.081 | 0.021 ± 0.082 | 0.0105 ± 0.07 | 0.036 ± 0.02 | 0.011 ± 0.014 | 0.0085 ± 0.018 | 0.015 ± 0.0085 | 0.007 ± 0.09 | 0.0765 ± 0.043 | 0.0165 ± 0.098 | -0.023 ± 0.055 | 0.0075 ± 0.0078 | 0.11 ± 0.0092 |
| SAg:CD40 | -0.14 ± 0.033 | -0.024 | -0.0355 ± 0.012 | -0.025 ± 0.017 | -0.064 ± 0.0057 | -0.172 ± 0.0064 | -0.0285 ± 0.03 | -0.011 ± 0.044 | -0.0215 ± 0.04 | -0.0065 ± 0.013 | -0.007 ± 0.0085 | -0.01 ± 0.034 | -0.0015 ± 0.0064 | -0.0235 ± 0.013 | -0.024 ± 0.04 | -0.0255 ± 0.028 | -0.0315 ± 0.012 | 0.002 ± 0.0071 | -0.015 ± 0.0028 | -0.078 ± 0.034 |
| BT:B cell Proliferation | -0.24 ± 0.052 | 0.023 ± 0.016 | 0.035 ± 0.031 | 0.0025 ± 0.063 | 0.034 ± 0.047 | 0.086 ± 0.0042 | 0.0165 ± 0.013 | 0.0285 ± 0.0064 | 0.0195 ± 0.043 | -0.0045 ± 0.005 | 0.019 ± 0.0071 | -0.021 ± 0.038 | 0.008 ± 0.033 | -0.008 ± 0.034 | -0.0325 ± 0.043 | -0.0255 ± 0.021 | -0.008 | 0.01 ± 0.044 | 0.0345 ± 0.013 | 0.101 ± 0.011 |
| BF4T:tPA | -0.071 ± 0.014 | -0.131 ± 0.019 | -0.133 | 0.004 ± 0.0028 | -0.012 ± 0.0085 | -0.075 ± 0.016 | -0.017 ± 0.021 | -0.0015 ± 0.0092 | 0.012 ± 0.038 | 0.022 ± 0.025 | -0.0085 ± 0.016 | -0.012 ± 0.014 | -0.0235 ± 0.018 | -0.0065 ± 0.011 | -0.0185 ± 0.016 | -0.036 ± 0.038 | -0.014 ± 0.047 | -0.0495 ± 0.029 | -0.047 ± 0.057 | -0.181 ± 0.085 |
| LPS:CD141/Thrombomodulin | 0.0505 ± 0.054 | 0.0875 ± 0.057 | 0.051 ± 0.092 | -0.0155 ± 0.0092 | -0.017 ± 0.017 | -0.0095 ± 0.028 | 0.0715 ± 0.097 | 0.035 ± 0.023 | 0.06 ± 0.064 | 0.0215 ± 0.023 | -0.024 ± 0.075 | 0.059 ± 0.0071 | 0.039 ± 0.079 | 0.019 ± 0.033 | -0.039 ± 0.025 | -0.0465 ± 0.04 | -0.091 ± 0.017 | -0.035 ± 0.025 | -0.028 ± 0.034 | 0.083 ± 0.014 |
| BT:sIL-17F | -1 ± 0.04 | 0.0115 ± 0.0092 | -0.0225 ± 0.049 | -0.0125 ± 0.11 | 0.054 ± 0.041 | -0.13 ± 0.027 | 0.0185 ± 0.069 | 0.028 ± 0.041 | 0.05 ± 0.033 | -0.0435 ± 0.049 | -0.0545 ± 0.16 | 0.0235 ± 0.015 | -0.0505 ± 0.063 | 0.0025 ± 0.1 | -0.0095 ± 0.032 | -0.023 ± 0.02 | -0.046 ± 0.014 | 0.062 ± 0.054 | 0.0385 ± 0.0035 | 0.0705 ± 0.012 |
| BT:Secreted IgG | -0.565 ± 0.17 | 0.007 ± 0.021 | 0.0175 ± 0.0092 | -0.024 ± 0.016 | -0.0005 ± 0.046 | -0.133 ± 0.037 | 0.022 ± 0.048 | 0.0275 ± 0.037 | 0.023 ± 0.017 | -0.006 ± 0.05 | -0.01 ± 0.044 | 0.017 ± 0.038 | -0.0175 ± 0.043 | 0.008 ± 0.033 | 0.0165 ± 0.00071 | -0.0065 ± 0.005 | -0.0095 ± 0.023 | -0.033 ± 0.0042 | -0.0265 ± 0.039 | -0.042 ± 0.034 |
| LPS:CXCL8/IL-8 | -0.0285 ± 0.00071 | -0.0065 ± 0.023 | 0.016 ± 0.011 | -0.005 ± 0.0071 | -0.0015 ± 0.013 | -0.034 ± 0.0071 | 0.025 ± 0.076 | 0.026 ± 0.0057 | 0.0885 ± 0.037 | 0.026 ± 0.055 | 0.0325 ± 0.005 | -0.019 ± 0.031 | -0.0135 ± 0.028 | 0.003 ± 0.031 | 0.006 ± 0.014 | 0.023 ± 0.011 | 0.0455 ± 0.015 | -0.005 ± 0.013 | 0.0425 ± 0.0092 | 0.159 ± 0.0057 |
| LPS:IL-1alpha | -0.078 ± 0.038 | -0.022 ± 0.011 | 0.004 ± 0.031 | -0.0075 ± 0.053 | 0.032 ± 0.013 | 0.0185 ± 0.0078 | 0.047 ± 0.035 | -0.0045 ± 0.0035 | 0.03 ± 0.048 | -0.0655 ± 0.03 | -0.0495 ± 0.047 | -0.027 ± 0.023 | -0.0115 ± 0.023 | 0.0085 ± 0.022 | -0.0225 ± 0.079 | -0.0355 ± 0.022 | 0.052 ± 0.0042 | 0.0255 ± 0.018 | -0.0115 ± 0.039 | -0.063 ± 0.12 |
| SAg:CD69 | -0.181 ± 0.073 | -0.01 ± 0.028 | -0.0235 ± 0.047 | -0.028 ± 0.017 | -0.0725 ± 0.019 | -0.217 ± 0.02 | -0.039 ± 0.042 | -0.0215 ± 0.023 | -0.024 ± 0.048 | -0.028 ± 0.0071 | -0.039 ± 0.0014 | 0.0115 ± 0.00071 | 0.009 ± 0.0014 | 0 ± 0.031 | -0.001 ± 0.0014 | -0.0035 ± 0.00071 | -0.013 ± 0.024 | -0.011 ± 0.0099 | -0.049 ± 0.04 | -0.0795 ± 0.049 |
| BE3C:HLA-DR | -0.0175 ± 0.028 | -0.0645 ± 0.005 | -0.669 ± 0.0085 | -0.01 ± 0.0042 | -0.032 ± 0.018 | -0.0685 ± 0.018 | -0.0155 ± 0.0092 | -0.017 ± 0.014 | -0.019 ± 0.024 | 0.0035 ± 0.0021 | 0.0015 ± 0.0078 | 0.002 ± 0.013 | -0.0075 ± 0.012 | -0.01 ± 0.025 | 0.0015 ± 0.016 | -0.0065 ± 0.0064 | 0.0125 ± 0.005 | -0.006 ± 0.025 | -0.041 ± 0.014 | -0.642 ± 0.14 |
| BE3C:CXCL11/I-TAC | 0.0085 ± 0.011 | -0.04 ± 0.0057 | -0.826 ± 0.0085 | 0.0015 ± 0.052 | -0.023 ± 0.035 | -0.107 ± 0.067 | 0.002 ± 0.021 | 0.013 ± 0.045 | 0.035 ± 0.018 | 0.0005 ± 0.015 | 0.004 ± 0.013 | 0.0015 ± 0.00071 | 0.0115 ± 0.005 | 0.013 ± 0.0014 | 0.0125 ± 0.023 | 0 ± 0.014 | 0.0155 ± 0.028 | -0.012 ± 0.014 | 0.002 ± 0.011 | -0.598 ± 0.059 |
